Measured values taken from patent publication US10301277B2, “Substituted ureas and methods of treating mental illness using the same” (ZHEJIANG JINGXIN PHARMACEUTICAL CO., LTD., priority 2016, dated 2019).
Read-outs that look alike come from different tables or passages of the source.

Legend:
[1] = Acute toxicity assay, single oral administration; details: ICR, mouse, in vivo
Procedure: Acute Toxicity Assay of the Cyclohexane Derivatives of the Present Invention
ICR mice orally administered with the compounds of the present invention were evaluated and their toxicity symptoms after oral administration were observed, as well as the mortality, which was calculated by Bliss method, thus the acute toxicities were compared.
• i. Preparation of solvent: Tween-80 of an appropriate amount was diluted with deionized water to a concentration of […] (g/v) Tween-80. • ii. […]. Administration: the test compound and solvent medium control groups (0.5% Tween-80) were administered orally.
Observations include but are not limited to: general condition, behavior, gait, eyes, mouth, nose, gastrointestinal tract, skin and hair and urogenital tract.

[2] = system: MK-801-induced schizophrenia model; assay: MK-801-induced schizophrenia model, open field running behavior; assay type: in vivo, Sprague-Dawley rats; details: for inhibition of high spontaneous activity of MK-801-induced rats: dose of 0.3 mg/kg, compared with MK-801 model control; for Total Distance within 61-150 minutes / Improvement Rate: single oral administration 0.3 mg/kg; for Total Distance within 61-150 minutes: MK-801 0.3 mg/kg i.p., x ± SD; for Improvement Rate: versus MK-801 model control
Procedure: (I) Modeling of MK-801-Induced Schizophrenia in Mice
Each rat was placed in a soundproof box for 30 minutes on the day before the test to adapt. On the next day, each rat was administrated with the respective test compounds, and after 30 minutes, administrated intraperitoneally with a 0.3 mg/kg MK-801 solution at 5.0 mL/kg body weight of the rat to build a model of MK-801-induced schizophrenia in mice.
(II) Observation of Open Field Running Behavior
Mice were administered with MK-801 and then immediately placed in the soundproof box. The total distances of motion of mice within 2.5 hours were observed and recorded. Improvement rate=(total distance of model control−total distance of administration)/(total distance of model control)×100%. (III) Statistical Method
All the data was expressed with x±SD and processed by SPSS17.0 software statistical package. T-test and one-way analysis of variance were performed to compare the mean of two samples, with P<0.05 as significant difference.

[3] = molecular target: Dopamine D3 receptor (Homo sapiens, UniProt P35462); assay: Dopamine D3 receptor binding assay
Procedure: (§1) This test was carried out according to the dopamine D2/D3 receptor binding assay and the 5-HT1A receptor binding assay described in Jiangsu Hengyi Pharmaceutical Co., Ltd.'s Patent CN 103130737 A. IC50 values were calculated from concentration-dependent reactions using a non-linear analysis program. Ki values were calculated from IC50 values by using Cheng-Prussoff equation, i.e. Ki=IC50/(1+[L]/KD), wherein Ki is the affinity of the drug to the receptor; […]; and KD is the affinity of radioligand to the receptor.
The concentration of the compound was 10 μmol/L, and the assay was performed according to the method described in Journal of Pharmacology and Experimental Therapeutics 2010, 333 (1): 328.

[4] = molecular target: T1, Dopamine D2 receptor (Homo sapiens, UniProt P14416); assay: Dopamine D2 receptor binding assay; details: [3H] Spiperone, HEK293 cells expressing D2 receptor
T1 construct: expressed in transfected cells
Procedure: as §1
(I) Dopamine D2 Receptor Binding Assay
• a. Transfection of D2 Receptor Cells: by using calcium phosphate method, HEK293 cells were transfected with a plasmid vector containing the D2 receptor protein gene. The transfected cells were cultured in a culture solution containing G418, followed by a selection of monoclonal cell and radioligand binding assay, finally obtaining a stable cell line with stable expression of D2 receptor protein. • b. Materials for receptor binding assay: isotope ligand [^3H] Spiperone (113.0 Ci/mmol); available from Sigma-Aldrich Company; (+) spiperone, available from RBI company; GF/B glass fiber filter paper, available from Whatman Company; Tris imported and packaged; PPO, POPOP, available from Shanghai Reagent Chemical Company; lipid-soluble scintillation solution; and Beckman LS-6500 Multi-function Liquid Scintillation Counter. ii. Test Method • a. Treatment of cells: HEK-293 cells were infected with various recombinant viruses of the above genes, respectively, and the receptor proteins were highly expressed on the membranes after 48-72 hours. The cells were centrifuged at 1000 rpm for 5 minutes. The culture solution was discarded, and the cells were collected and stored in a refrigerator at −20° C. for standby. The cells were resuspended with Tris-HCl buffer (pH=7.5) when tested. • b. Competitive binding assay for receptor
The compound to be tested and the radio ligand, both 20 μL, and 160 μL of receptor proteins were added to the reaction test tubes to achieve a final concentration of 10 μmol/L for each of the compound to be tested and positive control, incubated in a water bath of 30° C. for 50 minutes and immediately transferred to an ice bath to terminate the reaction; placed on a Millipore cell sample collector, filtered by suction rapidly through a […] glass fiber filter, and eluted with 3 mL of eluent (50 mM Tris-HCl, pH7.5) for three times and dried with microwave for 5-6 minutes. The filter paper was transferred into a 0.5 mL centrifuge tube to which 500 μL of lipid-soluble scintillation solution was added, and settled away from light for more than 30 minutes. The radioactive intensity was determined by counting. The concentration of the compound was 10 μmol/L, and inhibition rate (%) of each compound to the binding of isotope ligands was calculated according to the following equation: Inhibition rate (I%)=(total binding tube cpm−compound cpm)/(total binding tube cpm—non-specific binding tube cpm)×100%. (II) Dopamine D3 Receptor Binding Assay

[5] = molecular target: T2, 5-HT1A receptor (Homo sapiens, UniProt P08908); assay: 5-HT1A receptor binding assay; details: [3H] 8-OH-DPAT, HEK-293 cells expressing 5-HT1A receptor
T2 construct: expressed in transfected cells
T2 sequence (P08908 1-422): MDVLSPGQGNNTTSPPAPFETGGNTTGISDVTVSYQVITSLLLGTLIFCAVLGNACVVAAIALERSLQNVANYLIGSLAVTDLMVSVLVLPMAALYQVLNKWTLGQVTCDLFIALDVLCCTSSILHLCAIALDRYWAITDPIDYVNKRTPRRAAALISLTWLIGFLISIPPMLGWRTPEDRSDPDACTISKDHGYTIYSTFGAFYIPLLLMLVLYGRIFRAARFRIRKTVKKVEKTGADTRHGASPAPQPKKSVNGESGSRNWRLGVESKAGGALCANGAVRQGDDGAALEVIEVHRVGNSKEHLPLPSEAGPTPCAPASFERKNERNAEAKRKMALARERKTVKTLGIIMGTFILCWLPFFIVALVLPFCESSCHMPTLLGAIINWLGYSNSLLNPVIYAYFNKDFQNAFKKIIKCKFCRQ
Procedure: as §1
(III) 5-HT1A Receptor Binding Assay
5-HT1A receptor isotope ligand [^3H] 8-OH-DPAT (available from PE Company); (+)5-hydroxytrptamine (available from Sigma Company); GF/B glass fiber filter paper (available from Whatman Company); lipid-soluble scintillation solution: PPO, POPOP (available from Shanghai Chemical Reagent Company); toluene (from Sinopharm Chemical Reagent Co., Ltd.); Tris imported and packaged.
Treatment of cells: HEK-293 cells which stably express the 5-HT1A receptor by gene recombination were cultured in DMEM+10% serum solution for 3-5 days and then collected with PBS. The cells were centrifuged at 3000 rpm and […] for 10 minutes. Afterwards, the supernate was discarded, and the cells were collected and stored in a refrigerator at −80° C. The cells were resuspended with D1 Binding Buffer (pH 7.4) when tested.
Inhibition rate of each compound of 10 umol/L to the binding of [^3H]8-OH-DPAT and the 5-HT1A receptor was determined by a general selection.

[6] = single oral administration, Bliss method, read-out: LD50

T1 sequence (P14416 whole entry, species assumed): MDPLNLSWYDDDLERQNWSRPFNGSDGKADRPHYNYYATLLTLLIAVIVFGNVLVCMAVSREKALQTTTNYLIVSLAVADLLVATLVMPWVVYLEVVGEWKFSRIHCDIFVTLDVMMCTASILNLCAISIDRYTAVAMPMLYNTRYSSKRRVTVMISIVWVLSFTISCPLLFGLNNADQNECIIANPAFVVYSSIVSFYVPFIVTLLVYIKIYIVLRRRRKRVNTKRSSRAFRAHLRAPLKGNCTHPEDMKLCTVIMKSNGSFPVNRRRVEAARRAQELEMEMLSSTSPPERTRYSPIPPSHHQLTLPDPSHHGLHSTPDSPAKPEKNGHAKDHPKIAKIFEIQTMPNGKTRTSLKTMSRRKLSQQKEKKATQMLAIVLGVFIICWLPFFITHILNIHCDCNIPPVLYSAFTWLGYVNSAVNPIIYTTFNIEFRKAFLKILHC
Dopamine D3 receptor, sequence (P35462 whole entry, species assumed): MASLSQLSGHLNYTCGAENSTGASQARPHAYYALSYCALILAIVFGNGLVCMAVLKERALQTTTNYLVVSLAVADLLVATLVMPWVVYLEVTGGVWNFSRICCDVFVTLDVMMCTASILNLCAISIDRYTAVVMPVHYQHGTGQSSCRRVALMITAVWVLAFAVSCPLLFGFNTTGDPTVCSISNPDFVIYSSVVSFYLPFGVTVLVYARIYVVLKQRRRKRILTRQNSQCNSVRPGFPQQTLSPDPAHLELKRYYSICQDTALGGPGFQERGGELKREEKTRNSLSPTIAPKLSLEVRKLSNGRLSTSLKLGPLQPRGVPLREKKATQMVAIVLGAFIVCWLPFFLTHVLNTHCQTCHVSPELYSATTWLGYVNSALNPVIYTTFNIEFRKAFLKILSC

Row | Compound | inhibition of high spontaneous activity of MK-801-induced rats [2] | Total Distance within 61-150 minutes [2] | Improvement Rate [2] | Ki [3] | Ki [4] | Ki [5] | other results
1 | CN(C)C(=O)N[C@H]1CC[C@H](CCN2CCN(c3cccc4ccsc34)CC2)CC1 [drawing 35] | – | – | – | – | – | – | LD50 at 6 days [1, 6]: 1100 mg/kg
2 | CN(C)C(=O)N[C@H]1CC[C@H](CCN2CCN(c3noc4cc(F)ccc34)CC2)CC1 [Compound 5, N′-[trans-4-[2-[4-(6-fluoro-benzo[d]isoxazol)-3-piperazinyl]ethyl]cyclohexyl]-N,N-dimethylurea] | significantly inhibit | 5.43 ± 1.7 m | 98.25% | – | – | – | –
3 | CN(C)C(=O)N[C@H]1CC[C@H](CCN2CCN(c3cccc(Cl)c3Cl)CC2)CC1 [Cariprazine, reference compound] | significantly inhibited | 168.25 ± 26.9 m | 45.69% | – | – | – | total distances of the rats within 150 minutes compared with MK-801 model control ([2]; 0.3 mg/kg): decreased; LD50 at 6 days ([1]; po): 75.3 mg/kg
4 | Cc1ccc2c(N3CCN(CC[C@H]4CC[C@H](NC(=O)N(C)C)CC4)CC3)noc2c1 [Compound 14, N′-[trans-4-[2-[4-(6-methyl-benzo[d]isoxazol)-4-piperazinyl]ethyl]cyclohexyl]-N,N-dimethylurea] | significantly inhibited | 150.28 ± 11.70 m | 51.49% | – | – | – | –
5 | CN(C)C(=O)N[C@H]1CC[C@H](CCN2CCN(c3cccc4sccc34)CC2)CC1 [Compound 1, N′-[trans-4-[2-[4-(benzo[b]thiophene)-7-piperazinyl]ethyl]cyclohexyl]-N,N-dimethylurea] | significantly inhibit | 73.09 ± 11.7 m | 76.41% | – | – | – | –
6 | CN(C)C(=O)N[C@H]1CC[C@H](CCN2CCN(c3ccc4c(Cl)noc4c3)CC2)CC1 [Compound 6, N′-[trans-4-[2-[4-(3-chloro-benzo[d]isoxazol)-6-piperazinyl]ethyl]cyclohexyl]-N,N-dimethylurea] | significantly inhibited | 171.78 ± 13.0 m | 12.27% | – | – | – | –
7 | CN(C)C(=O)N[C@H]1CC[C@H](CCN2CCN(c3cccc4cscc34)CC2)CC1 [drawing 36] | – | – | – | – | – | – | LD50 at 6 days [1, 6]: 1050 mg/kg
8 | CN(C)C(=O)N[C@H]1CC[C@H](CCN2CCN(c3cccc4cscc34)CC2)CC1 [drawing 30] | – | – | – | 0.07 nM | 978 nM | 3.72 nM | –
9 | CN(C)C(=O)N[C@H]1CC[C@H](CCN2CCN(c3noc4cc(F)ccc34)CC2)CC1 [drawing 32] | – | – | – | 0.29 nM | 1.3 nM | 4.12 nM | –
10 | CN(C)C(=O)N[C@H]1CC[C@H](CCN2CCN(c3cccc4ccsc34)CC2)CC1 [drawing 29] | – | – | – | 0.06 nM | > 1000 nM | 3.85 nM | –
11 | CN(C)C(=O)N[C@H]1CC[C@H](CCN2CCC(c3noc4cc(F)ccc34)CC2)CC1 [drawing 34] | – | – | – | 0.15 nM | > 1000 nM | 3.65 nM | –
12 | CN(C)C(=O)N[C@H]1CC[C@H](CCN2CCN(c3nsc4ccccc34)CC2)CC1 [Compound 4, N′-[trans-4-[2-[4-(benzo[d]isothiazolyl)-3-piperazinyl]ethyl]cyclohexyl]-N,N-dimethylurea] | – | 232.18 ± 20.3 m | 25.05% | – | – | – | –
13 | CN(C)C(=O)N[C@H]1CC[C@H](CCN2CCN(c3ccc4c(Cl)noc4c3)CC2)CC1 [drawing 33] | – | – | – | 0.57 nM | 251 nM | 22.8 nM | –
14 | CN(C)C(=O)N[C@H]1CC[C@H](CCN2CCN(c3cccc4cscc34)CC2)CC1 [Compound 3, N′-[trans-4-[2-[4-(benzo[c]thiophene)-7-piperazinyl]ethyl]cyclohexyl]-N,N-dimethylurea] | significantly inhibit | 63.79 ± 10.8 m | 79.41% | – | – | – | –
15 | CN(C)C(=O)N[C@H]1CC[C@H](CCN2CCN(c3cccc4ccsc34)CC2)CC1 [Compound 2, N′-[trans-4-[2-[7-(benzo[b]thiophene)-7-piperazinyl]ethyl]cyclohexyl]-N,N-dimethylurea] | significantly inhibit | 46.95 ± 10.3 m | 84.84% | – | – | – | –
16 | CN(C)C(=O)N[C@H]1CC[C@H](CCN2CCN(c3cccc4sccc34)CC2)CC1 [drawing 31] | – | – | – | 0.06 nM | > 1000 nM | 3.96 nM | –
17 | CN(C)C(=O)N[C@H]1CC[C@H](CCN2CCN(c3cccc4sccc34)CC2)CC1 [drawing 37] | – | – | – | – | – | – | LD50 at 6 days [1, 6]: 1080 mg/kg
18 | CN(C)C(=O)N[C@H]1CC[C@H](CCN2CCC(c3noc4cc(F)ccc34)CC2)CC1 [Compound 7, N′-[trans-4-[2-[4-(6-fluoro-benzo[d]isoxazol)-3-piperidyl]ethyl]cyclohexyl]-N,N-dimethylurea] | significantly inhibited | 160.82 ± 12.91 m | 48.09% | – | – | – | –
